Laboratory results as given in patent US20140011853A1, “SUBSTITUTED 3-(BIPHENYL-3-YL)-8,8-DIFLUORO-4-HYDROXY-1-AZASPIRO[4.5]DEC-3-EN-2-ONES FOR THERAPY” (BAYER INTELLECTUAL PROPERTY GMBH, priority 2011, published 2014).
Where “and” joins values, the source holds several entries; their conditions need not be identical. Equal entries are not always repeated. Where two headings read alike, the source gives them in different places.

Key:
human ACC1 = molecular target: T1, human ACC1 (Homo sapiens, UniProt Q13085); experiment: Human ACC1 enzyme assay (ADP-Glo); format: biochemical; details: ACC 1 IC50, individual measurements
T1 construct: FLAG (C); made in house; host or cells: baculovirus-infected insect cells (Hi5)

PC3 = experiment: Tumour cell proliferation, CellTiter-Glo, 96-hour incubation, PC3; format: cell-based; details: Homo sapiens, PC-3, 96 h, read-out: PC3 IC50
Description: In accordance with the invention, the substances were tested in cell-based assays for the ability of the substances of inhibiting tumour cell proliferation after a 96-hour incubation with the substance. Cell viability was tested using the CellTiter-Glo® luminescent cell viability assay (Promega). The cells were sown at a density of 2000-5000 cells/well (depending on the cell line) in 100 μl growth medium on 96-well microtiter plates. For each cell line examined, cells were sown on a separate plate to determine the luminescence at t=0 hours and t=96 hours. After overnight incubation at 37° C., the luminescence values for the t=0 samples were determined. The dose plates for the t=96 hours points in time were treated with substances diluted with growth medium. The cells were then incubated at 37° C. for 96 hours, and the luminescence values for the t=96 hours samples were then determined. For data analysis, the t=0 values were subtracted from the t=96 hours values for treated and untreated samples. The differences in luminescence in percent between substance-treated samples and control values were used to determine the growth inhibition in percent.
The substances were tested in the following cell lines which represent the stated indications in an exemplary manner: […]

[1] = Plasma protein binding by equilibrium dialysis, human; format: in vitro ADME; details: read-out: fu (human)
Description: (§1) The binding of test substances to plasma proteins is determined by equilibrium dialysis by means of the Ht-dialysis apparatus (96-well) made of Teflon and a semipermeable membrane (regenerated cellulose, MWCO 12-14K). This separates 150 μl each of a plasma side and a buffer side (50 mM phosphate buffer). The test substance is added in 2 concentrations (usually 3 and 0.3 μM) to the plasma side and binds to plasma proteins. The unbound fraction of the test substance passes through the membrane and is distributed on either side until equilibrium is established (after approx. 6-8 h at 37° C.). The substance concentration on the buffer side and the plasma side is determined by LC-MS analysis. For this, both sides are brought by dilution with buffer or plasma to the same matrix (10% plasma) and then precipitated with methanol. The free (unbound) fraction (fu) is calculated from the quotient of the buffer and plasma concentration. Stability tests and recovery tests are run concurrently as controls. In addition, the substance in buffer is dialysed against buffer, to check the nonspecific binding to apparatus and membrane and establishment of equilibrium. Because during incubation the osmotic pressure of the plasma proteins leads to dilution of the plasma (volume shift), this possible error is determined by weighing blank plasma samples and is included in the calculation of fu. Establishment of equilibrium and plasma stability should have a value not lower than 80% and the recovery should be at least 30%. A free fraction of <1% is regarded as high, between 1 and 10% as moderate and >10% as low plasma protein binding.

[2] = Plasma protein binding by equilibrium dialysis, mouse; format: in vitro ADME; details: read-out: fu (mouse)
Description: as §1

[3] = Pharmacokinetic parameters in the rat (i.v. and intragastric); format: in vivo; details: for clearance / Vd / half-life: male, iv; for clearance: read-out: CLplasma (converted); for Vd: read-out: Vss; for half-life: read-out: t½ (converted)
Description: For this, the test substances were applied in dissolved form both for intravenous, and for intragastric application, wherein compatible solubilizers such as PEG400 and/or ethanol were used in a compatible amount.
(§2) The test substances were applied at a dose of 0.1-1 mg/kg. Administration was as a bolus injection in the male rat and as an infusion in the female dog (15 min). At various time points after the bolus injection, and before and after the 15-minute infusion, blood samples of about 100-150 μl were removed via a catheter either from the jugular vein (rat) or from the saphenous vein (dog). Lithium-heparin was added as anticoagulant to the blood samples and they were stored in a refrigerator until required for further processing. After centrifugation of the samples for 15 min at 3000 rpm, an aliquot of 100 μl was taken from the supernatant (plasma) and was precipitated by adding 400 μl of cold ACN or methanol (absolute). The precipitated samples were frozen-out at 20° C. overnight, then centrifuged again at 3000 rpm for 15 min, before 150 μl of the clear supernatant were removed to determine the concentration. The analysis was effected by means of an Agilent 1200 HPLC system with connected LCMS/MS detection.
Calculation of the PK parameters (using PK calculation software, e.g. WinNonLin®): CLplasma: total plasma clearance of the test substance (in l*kg/h); CLblood: total blood clearance of the test substance (in l*kg/h),
where (CLblood=CLplasma*Cp/Cb); Vss: apparent steady-state distribution volume (in 1/kg); t1/2: half-life within a specified interval (here: terminal t1/2, in h); AUCnorm: area under the plasma concentration time profile from time point zero extrapolated to infinity divided by the dose normalized for body weight (in kg*l/h); AUC(0-tn)norm: integrated area under the plasma concentration time profile from time point zero until the last time point at which a plasma concentration was measurable, divided by the dose normalized for body weight (in kg*l/h); Cmax: maximum concentration of the test substance in the plasma (in μg/l); Cmax,norm: maximum concentration of the test substance in the plasma divided by the dose normalized for body weight (in kg/1); Cb/Cp: ratio of the blood to plasma concentration distribution.
as §2, with “administered to fasting male rats or female dogs” for “applied”, “0.3-1 mg/kg intragastrically” for “0.1-1 mg/kg. Administration was”, “using a feeding tube.” for “injection in the male rat and as an infusion in the female dog (15 min).”, “administration,” for “the bolus injection, and before and after the 15-minute infusion,”, “−20°” for “20°”, “centrifuged” for “centrifuged again”
Calculation of the PK Parameters (Using PK Calculation Software, e.g. WinNonLin®): […]

Spodoptera frugiperda = Spodoptera frugiperda test (SPODFR spray treatment); format: in vivo; details: 500 g/ha, after 7 days
Myzus persicae = experiment: Myzus test (MYZUPE spray treatment); format: in vivo; details: Myzus persicae, 144 h, read-out: effect (kill of aphids)
From the text: Disks of Chinese cabbage (Brassica pekinensis) infested by all stages of the green peach aphid (Myzus persicae) are sprayed with an active compound formulation of the desired concentration.

Tetranychus urticae = experiment: Tetranychus test, OP-resistant (TETRUR spray treatment); format: in vivo; details: Tetranychus urticae, 144 h, read-out: effect (kill of spider mites)

SMILES | IC50 (human ACC1) | IC50 (PC3) [nM] | fraction unbound [1] | fraction unbound [2] | CLblood [3] [mL/min/kg] | F [3] [%] | clearance ([3]; in vivo) [mL/min/kg] | Vd ([3]; in vivo) [L/kg] | half-life ([3]; in vivo) [h] | effect (kill of caterpillars) (Spodoptera frugiperda) [%] | pest or weed control at 500 g/ha (Myzus persicae) [%] | pest or weed control at 100 g/ha (Tetranychus urticae) [%] | clearance ([3]; plasma) [mL/min/kg] | Vd ([3]; plasma) [L/kg] | half-life ([3]; plasma) [h]
Cc1ccc(-c2ccc(Cl)cc2)cc1C1=C(O)C2(CCC(F)(F)CC2)NC1=O [Example 1-2, 3-(4′-Chloro-4-methylbiphenyl-3-yl)-8,8-difluoro-4-hydroxy-1-azaspiro[4.5]dec-3-en-2-one] | 68 nM and 80 nM and 99 nM and 109 nM and 72 nM and 65 nM and 135 nM and 153 nM | 50 | 0.0042 | 0.0349 | 0.2 | 123 | 0.1 | 0.36 | 52 | 100 | 100 | 100 | – | – | –
Cc1ccc(-c2ccc(Cl)c(F)c2)cc1C1=C(O)C2(CCC(F)(F)CC2)NC1=O [Example 1-1, 3-(4′-Chloro-3′-fluoro-4-methylbiphenyl-3-yl)-8,8-difluoro-4-hydroxy-1-azaspiro[4.5]dec-3-en-2-one] | 117 nM and 125 nM and 69 nM and 95 nM and 58 nM and 97 nM and 53 nM and 54 nM | 39 | 0.0035 | 0.0184 | 0.367 | 95 | – | – | – | 100 | 90 | 90 | 0.167 | 0.55 | 40
